Drawing on patent US11548888B2, “KRas G12C inhibitors” (Mirati Therapeutics, Inc., priority 2019, dated 2023), this text covers IC50 for 54 molecules.

The target in this assay is T1, KRas G12C (Homo sapiens, UniProt P01116, G12C).
T1 construct: NCI-H358 cells (ATCC CRL-5807) express KRas G12C
T1 sequence (P01116 1-188 isoform P01116-2 G12C): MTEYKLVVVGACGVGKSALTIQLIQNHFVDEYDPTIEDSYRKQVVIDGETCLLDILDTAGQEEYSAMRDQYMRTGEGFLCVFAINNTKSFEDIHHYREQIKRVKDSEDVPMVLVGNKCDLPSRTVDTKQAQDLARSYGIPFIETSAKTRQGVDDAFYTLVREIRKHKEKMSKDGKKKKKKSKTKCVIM
Description: Inhibition of KRas G12C-dependent cell growth: Phospho-ERK in NCI-H358 cells. Format: cell-based. The note with it: NCI-H358 cells expressing KRas G12C; Phospho-ERK (Thr202/Tyr204) normalized to GAPDH; 3 hours compound; 4 parameter fit. The method, boiled down: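 NCI-H358 cells (KRas G12C) exposed to compounds for 3 h, 0.5% DMSO final. Fixed cells immunostained for pERK(Thr202/Tyr204) and GAPDH with infrared secondary antibodies. pERK normalized to GAPDH, expressed as percent of DMSO control; IC50 from 4-parameter dose-response fit.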
`C=CC(=O)N1CCN(c2nc(OC[C@@H]3CCCN3C)nc3c(F)c(-c4cccc5ccc(F)c(Cl)c45)ncc23)C[C@@H]1C` [Example 141] yielded an IC50 of 50 nM. This lies in the double-digit nanomolar range.
To `C=C(F)C(=O)N1CCN(c2nc(OCc3cc4ncccc4[nH]3)nc3c(F)c(-c4cccc5ccc(F)c(Cl)c45)ncc23)C[C@@H]1CC#N` [Example 142] belongs 1250 nM; to `C=C(F)C(=O)N1CCN(c2nc(OCC34CCCN3CCOC4)nc3c(F)c(-c4cccc5ccc(F)c(Cl)c45)ncc23)C[C@@H]1CC#N` (stereo partly drawn) [Example 144], 35 nM; to `C=C(F)C(=O)N1CCN(c2nc(OCC34CCCN3C[C@H](F)C4)nc3c(F)c(-c4cccc5ccc(F)c(Cl)c45)ncc23)C[C@@H]1CC#N` (stereo partly drawn) [Example 145], 2 nM.
To `C=CC(=O)N1[C@@H](C)CN(c2ncnc3c(F)c(-c4cccc5ccc(F)c(Cl)c45)ncc23)C[C@@H]1C` [Example 146] belongs 10000 nM; to `C=C(F)C(=O)N1CCN(c2nc(OC[C@@H]3CCCN3C)nc3c(F)c(-c4cccc5ccc(Cl)c(Cl)c45)ncc23)C[C@@H]1CC#N` [Example 147], 23 nM.
The same measure for `C=CC(=O)N1C[C@H](C)N(c2ncnc3c(F)c(-c4cccc5ccc(F)c(Cl)c45)ncc23)[C@@H](C)C1` [Example 148]: 6280 nM; for `C=CC(=O)N1C[C@@H](C)N(c2ncnc3c(F)c(-c4cccc5ccc(F)c(Cl)c45)ncc23)[C@@H](C)C1` [Example 149]: 10000 nM.
Consider `C=CC(=O)N1CCN(c2ncnc3c(F)c(-c4cccc5ccc(F)c(Cl)c45)ncc23)C(CC#N)C1` (stereo not drawn) [Example 150], for which 10000 nM corresponded to half-maximal inhibition (IC50).
To `C=C(F)C(=O)N1CCN(c2nc(OCC3COC3)nc3c(F)c(-c4cccc5ccc(F)c(Cl)c45)ncc23)C[C@@H]1CC#N` [Example 151] belongs 256 nM; to `C=CC(=O)N1CCN(c2nc(OC[C@@H]3CCCN3C)nc3c(F)c(-c4cccc5ccc(F)c(Cl)c45)ncc23)C[C@H]1C` [Example 152], 322 nM.
`C=CC(=O)N1CCN(c2nc(C)nc3c(F)c(-c4cccc5cccc(Cl)c45)ncc23)CC1` [Example 153]: the IC50 was determined as 10000 nM.
The same measure for `C=C(F)C(=O)N1CCN(c2nc(OCC3(C)COC3)nc3c(F)c(-c4cccc5ccc(F)c(Cl)c45)ncc23)C[C@@H]1CC#N` [Example 154]: 221 nM; for `C=CC(=O)N1CCN(c2nc(OC[C@@H]3CCCN3C)nc3c(F)c(-c4cccc5ccc(F)c(Cl)c45)ncc23)[C@H](C)C1` [Example 155]: 585 nM; for `C=C(F)C(=O)N1CCN(c2nc(OCC3CCO3)nc3c(F)c(-c4cccc5ccc(F)c(Cl)c45)ncc23)C[C@@H]1CC#N` (stereo partly drawn) [Example 156]: 134 nM.
`C=C(F)C(=O)N1CCN(c2nc(OC[C@@H]3CCCN3C)nc3c(F)c(-c4cccc5ccc(F)c(F)c45)ncc23)C[C@@H]1CC#N` [Example 157]: the half-inhibitory concentration (IC50) turned out to be 23 nM.
In turn, `C=C(F)C(=O)N1CCN(c2nc(OC[C@H]3CN(C)CCO3)nc3c(F)c(-c4cccc5ccc(F)c(Cl)c45)ncc23)C[C@@H]1CC#N` [Example 158] returned an IC50 of 68 nM. Compared with the last molecule, the IC50 is about 3-fold higher.
`C=CC(=O)N1CC2(C1)CN(c1ncnc3c(F)c(-c4cccc5ccc(F)c(Cl)c45)ncc13)C2` [Example 159] registered a half-inhibitory concentration (IC50) of 10000 nM.
As for `C=C(F)C(=O)N1CCN(c2nc(OCC3(C)CCN3C)nc3c(F)c(-c4cccc5ccc(F)c(Cl)c45)ncc23)C[C@@H]1CC#N` (stereo partly drawn) [Example 161], the concentration for half-maximal inhibition (IC50) came to 11 nM.
The same measure for `C=C(F)C(=O)N1CCN(c2ncnc3c(F)c(-c4cc(O)cc5ccccc45)ncc23)C[C@@H]1CC#N` [Example 162]: 590 nM; for `C=CC(=O)N1CCN(c2nc(OC[C@@H]3CCCN3C)nc3c(F)c(-c4cccc5ccc(F)c(Cl)c45)ncc23)CC1C(F)(F)F` (stereo partly drawn) [Example 163]: 110 nM; for `C=CC(=O)N1CCN(c2nc(OC[C@@H]3CCCN3C)nc3c(F)c(-c4cccc5ccc(F)c(Cl)c45)ncc23)CC1CF` (stereo partly drawn) [Example 164]: 153 nM.
The same measure for `C=CC(=O)N1CCN(c2nc(OC[C@@H]3CCCN3C)nc3c(F)c(-c4cccc5ccc(F)c(Cl)c45)ncc23)CC1C(F)F` (stereo partly drawn) [Example 165]: 158 nM; for `C=C(F)C(=O)N1CCN(c2nc(OC[C@@H]3C[C@H](F)CN3C)nc3c(F)c(-c4cccc5ccc(F)c(Cl)c45)ncc23)C[C@@H]1CC#N` [Example 166]: 26 nM.
The same measure for `C=C(F)C(=O)N1CCN(c2nc(OC[C@H]3C[C@@H](F)CN3C)nc3c(F)c(-c4cccc5ccc(F)c(Cl)c45)ncc23)C[C@@H]1CC#N` [Example 167]: 60 nM; for `C=C(F)C(=O)N1CCN(c2nc(OC[C@H]3[C@H](F)CCN3C)nc3c(F)c(-c4cccc5ccc(F)c(Cl)c45)ncc23)C[C@@H]1CC#N` [Example 168]: 65 nM; for `C=C(F)C(=O)N1CCN(c2nc(OC[C@@H]3CCN(C)C3)nc3c(F)c(-c4cccc5ccc(F)c(Cl)c45)ncc23)C[C@@H]1CC#N` [Example 169]: 60 nM.
With `C=C(F)C(=O)N1CCN(c2nc(N3CC(N(C)C)C3)nc3c(F)c(-c4cccc5ccc(F)c(Cl)c45)ncc23)C[C@@H]1CC#N` [Example 170], it took 19 nM to reach half-maximal inhibition (IC50).
The molecule `C=CC(=O)N1CCN(c2nc(OC[C@@H]3CCCN3C)nc3c(F)c(-c4cccc5ccc(F)c(Cl)c45)ncc23)CC1` [Example 171] showed an IC50 of 22 nM. This IC50 and that of the molecule before are within 1.5-fold of each other.
The same measure for `C=C(F)C(=O)N1CCN(c2nc(OC[C@H]3CCN3CC)nc3c(F)c(-c4cccc5ccc(F)c(Cl)c45)ncc23)C[C@@H]1CC#N` [Example 172]: 18 nM.
`C=C(F)C(=O)N1CCN(c2nc(OC[C@@H]3CCN3CC)nc3c(F)c(-c4cccc5ccc(F)c(Cl)c45)ncc23)C[C@@H]1CC#N` [Example 173]: the IC50 stood at 31 nM.
The same measure for `C=C(F)C(=O)N1CCN(c2nc(OCC3CCC4CCCN43)nc3c(F)c(-c4cccc5ccc(F)c(Cl)c45)ncc23)C[C@@H]1CC#N` (stereo partly drawn) [Example 174]: 20 nM; for `C=CC(=O)N1CC[C@@H]2[C@H]1CN2c1ncnc2c(F)c(-c3cccc4ccc(F)c(Cl)c34)ncc12` [Example 175]: 134 nM; for `C=C(F)C(=O)N1CCN(c2nc(OC[C@@H]3[C@@H](F)CCN3C)nc3c(F)c(-c4cccc5ccc(F)c(Cl)c45)ncc23)C[C@@H]1CC#N` [Example 176]: 30 nM.
To `C=C(F)C(=O)N1CCN(c2nc(OC[C@H]3[C@@H](F)CCN3C)nc3c(F)c(-c4cccc5ccc(F)c(Cl)c45)ncc23)C[C@@H]1CC#N` [Example 177] belongs 51 nM; to `C=CC(=O)N1CCN(c2ncnc3c(F)c(-c4cc(O)cc5cccc(Cl)c45)ncc23)CC1` [Example 178], 63 nM.
The same measure for `C=C(F)C(=O)N1CCN(c2nc(OCC34CCCN3C[C@H](F)C4)nc3c(F)c(-c4cccc5ccc(F)c(Cl)c45)ncc23)C[C@@H]1CC#N` (stereo partly drawn) [Example 181]: 4 nM; for `C=C(F)C(=O)N1CCN(c2nc(OC[C@@H]3CCCN3CCF)nc3c(F)c(-c4cccc5ccc(F)c(Cl)c45)ncc23)C[C@@H]1CC#N` [Example 182]: 27 nM; for `C=CC(=O)N1CCN(c2ncnc3c(F)c(-c4cccc5ccc(F)c(Cl)c45)ncc23)C[C@@H]1CC(F)F` [Example 183]: 10000 nM.
Take `C=CC(=O)N1CCN(c2nc(OC[C@@H]3CCCN3C)nc3c(F)c(-c4ccccc4F)ncc23)CC1` [Example 184]: half-maximal inhibition (IC50) was put at 10000 nM.
Consider `C=C(F)C(=O)N1CCN(c2nc(OC[C@@H]3CCCN3CC(F)F)nc3c(F)c(-c4cccc5ccc(F)c(Cl)c45)ncc23)C[C@@H]1CC#N` [Example 185], for which it took 145 nM to reach half-maximal inhibition (IC50). Compared with the last molecule, the IC50 is about 69-fold lower.
The same measure for `C=CC(=O)N1CCN(c2ncnc3c(F)c(-c4ccccc4F)ncc23)[C@@H](C)C1` [Example 186]: 10000 nM; for `C=CC(=O)N1CCN(c2nc(N3CCC3)nc3c(F)c(-c4cccc5ccc(F)c(Cl)c45)ncc23)C[C@@H]1CC#N` [Example 187]: 74 nM; for `C=C(F)C(=O)N1CCN(c2nc(OCC34CCCN3C(CF)CC4)nc3c(F)c(-c4cccc5ccc(F)c(Cl)c45)ncc23)C[C@@H]1CC#N` (stereo partly drawn) [Example 188]: 29 nM.
Molecule `C=CC(=O)N1C[C@@H]2[C@H]1CCN2c1ncnc2c(F)c(-c3cccc4ccc(F)c(Cl)c34)ncc12` [Example 190] gave an IC50 of 10000 nM.
As for `C=C(F)C(=O)N1CCN(c2nc(OC[C@@H]3[C@H]4C[C@H]4CN3C)nc3c(F)c(-c4cccc5ccc(F)c(Cl)c45)ncc23)C[C@@H]1CC#N` [Example 191], the IC50 came out at 15 nM.
The same measure for `C=C(F)C(=O)N1CCN(c2nc(OC[C@@H]3[C@@H]4C[C@@H]4CN3C)nc3c(F)c(-c4cccc5ccc(F)c(Cl)c45)ncc23)C[C@@H]1CC#N` [Example 192]: 38 nM.
The same measure for `C=C(F)C(=O)N1CCN(c2nc(OC[C@H]3CN(C)C[C@H]3F)nc3c(F)c(-c4cccc5ccc(F)c(Cl)c45)ncc23)C[C@@H]1CC#N` [Example 193]: 67 nM.
To `C=C(F)C(=O)N1CCN(c2nc(OC[C@@H]3CN(C)C[C@@H]3F)nc3c(F)c(-c4cccc5ccc(F)c(Cl)c45)ncc23)C[C@@H]1CC#N` [Example 194] belongs 64 nM; to `C=C(F)C(=O)N1CCN(c2nc(OC[C@H]3[C@@H]4CC[C@@H](C4)N3CCF)nc3c(F)c(-c4cccc5ccc(F)c(Cl)c45)ncc23)C[C@@H]1CC#N` [Example 195], 31 nM; to `C=C(F)C(=O)N1CCN(c2nc(OC[C@H]3[C@@H]4CC[C@@H](C4)N3CC(F)F)nc3c(F)c(-c4cccc5ccc(F)c(Cl)c45)ncc23)C[C@@H]1CC#N` [Example 196], 1730 nM.
`C=CC(=O)N1CCN(c2ncnc3c(F)c(-c4cccc5ccc(F)cc45)ncc23)C[C@@H]1CC#N` [Example 197]: the IC50 amounted to 165 nM.
The same measure for `C=CC(=O)N1CCN(c2ncnc3c(F)c(-c4c(C)c(C)cc5[nH]ncc45)ncc23)CC1` [Example 198]: 8000 nM.
To `C=CC(=O)N1CCN(c2nc(C(F)(F)F)nc3c(F)c(-c4cccc5ccc(F)c(Cl)c45)ncc23)C[C@@H]1CC#N` [Example 199] belongs 3400 nM.

As usually defined, the IC50 is the concentration that gives 50% inhibition.
